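The compound was tested at five concentrations on cells cultured in 96-well plates, with a 48-hour exposure period. Here, GI50 denotes the concentration required for 50% inhibition of growth. TGI: total growth inhibition.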
Assays:
Assay in all cases: NCI tumour cell line growth inhibition, 48 h
SF-268 CNS = tested on: SF-268 CNS
TK-10 renal = tested on: TK-10 renal
A549 NSCLC = tested on: A549 NSCLC
RPMI-8226 leukemia = tested on: RPMI-8226 leukemia
OVCAR-5 ovarian = tested on: OVCAR-5 ovarian
SW-620 colon = tested on: SW-620 colon
NCI/ADR-RES ovarian = tested on: NCI/ADR-RES ovarian
NCI-H23 lung = tested on: NCI-H23 lung
HL-60(TB) leukemia = tested on: HL-60(TB) leukemia
PC-3 prostate = tested on: PC-3 prostate
M14 melanoma = tested on: M14 melanoma
KM12 colon = tested on: KM12 colon
COLO 205 colon = tested on: COLO 205 colon
SNB-19 CNS = tested on: SNB-19 CNS
SK-MEL-5 melanoma = tested on: SK-MEL-5 melanoma
OVCAR-8 ovarian = tested on: OVCAR-8 ovarian
T-47D breast = tested on: T-47D breast
MCF7 breast = tested on: MCF7 breast
U251 CNS = tested on: U251 CNS
NCI-H522 lung = tested on: NCI-H522 lung
RXF 393 renal = tested on: RXF 393 renal
MALME-3M melanoma = tested on: MALME-3M melanoma
CAKI-1 renal = tested on: CAKI-1 renal
MDA-MB-231 breast = tested on: MDA-MB-231 breast
IGROV1 ovarian = tested on: IGROV1 ovarian
SR leukemia = tested on: SR leukemia
SK-MEL-28 melanoma = tested on: SK-MEL-28 melanoma
SNB-75 CNS = tested on: SNB-75 CNS
SF-295 CNS = tested on: SF-295 CNS
A498 renal = tested on: A498 renal
OVCAR-3 ovarian = tested on: OVCAR-3 ovarian
HOP-92 NSCLC = tested on: HOP-92 NSCLC
SF-539 CNS = tested on: SF-539 CNS
HCT-15 colon = tested on: HCT-15 colon
MDA-MB-435 = tested on: MDA-MB-435
SN12C renal = tested on: SN12C renal
CCRF-CEM leukemia = tested on: CCRF-CEM leukemia
MOLT-4 leukemia = tested on: MOLT-4 leukemia
DU-145 prostate = tested on: DU-145 prostate
UO-31 renal = tested on: UO-31 renal
SK-MEL-2 melanoma = tested on: SK-MEL-2 melanoma
HCT-116 colon = tested on: HCT-116 colon
HCC-2998 colon = tested on: HCC-2998 colon
K-562 leukemia = tested on: K-562 leukemia
EKVX NSCLC = tested on: EKVX NSCLC
OVCAR-4 ovarian = tested on: OVCAR-4 ovarian
NCI-H460 lung = tested on: NCI-H460 lung
UACC-257 melanoma = tested on: UACC-257 melanoma
HOP-62 NSCLC = tested on: HOP-62 NSCLC
NCI-H226 lung = tested on: NCI-H226 lung

Work on `C#C[C@]1(O)CC[C@H]2[C@@H]3CC=C4c5sc(-c6ccc(O)c(O)c6)nc5CC[C@]4(C)[C@H]3CC[C@@]21C` yielded a GI50 (SF-268 CNS) of 2.47 µM, a TGI (SF-268 CNS) greater than 100 µM and a GI50 (TK-10 renal) of 9.21 µM. The TGI (TK-10 renal) was greater than 100 µM, the GI50 (A549 NSCLC) was 3.33 µM and the TGI (A549 NSCLC) was greater than 100 µM. The GI50 (RPMI-8226 leukemia) was 0.348 µM, the TGI (RPMI-8226 leukemia) was greater than 100 µM and the GI50 (OVCAR-5 ovarian) was 3.04 µM. It also gave a TGI (OVCAR-5 ovarian) greater than 100 µM, a GI50 (SW-620 colon) of 2.64 µM and a TGI (SW-620 colon) greater than 100 µM. For the same molecule, the GI50 (NCI/ADR-RES ovarian) was 2.81 µM, the TGI (NCI/ADR-RES ovarian) was greater than 100 µM and the GI50 (NCI-H23 lung) was 2.76 µM. The TGI (NCI-H23 lung) was greater than 100 µM, the GI50 (HL-60(TB) leukemia) was 1.77 µM and the TGI (HL-60(TB) leukemia) was greater than 100 µM. It also gave a GI50 (PC-3 prostate) of 0.833 µM, a TGI (PC-3 prostate) greater than 100 µM and a GI50 (M14 melanoma) of 2.09 µM. It also gave a TGI (M14 melanoma) of 5.87 µM, a GI50 (KM12 colon) of 2.97 µM and a TGI (KM12 colon) of 55 µM. It also gave a GI50 (COLO 205 colon) of 2.42 µM, a TGI (COLO 205 colon) of 5.81 µM and a GI50 (SNB-19 CNS) of 2.09 µM. The TGI (SNB-19 CNS) was 22.1 µM, the GI50 (SK-MEL-5 melanoma) was 2.13 µM and the TGI (SK-MEL-5 melanoma) was 5.15 µM. The GI50 (OVCAR-8 ovarian) was 3.3 µM, the TGI (OVCAR-8 ovarian) was 14.5 µM and the GI50 (T-47D breast) was 3.27 µM. For the same molecule, the TGI (T-47D breast) was 44.7 µM, the GI50 (MCF7 breast) was 1.09 µM and the TGI (MCF7 breast) was 6.06 µM. It also gave a GI50 (U251 CNS) of 0.68 µM, a TGI (U251 CNS) of 4.42 µM and a GI50 (NCI-H522 lung) of 1.69 µM. It also gave a TGI (NCI-H522 lung) of 3.64 µM, a GI50 (RXF 393 renal) of 0.157 µM and a TGI (RXF 393 renal) of 0.658 µM. For the same molecule, the GI50 (MALME-3M melanoma) was 1.63 µM, the TGI (MALME-3M melanoma) was 4.8 µM and the GI50 (CAKI-1 renal) was 2.98 µM. For the same molecule, the TGI (CAKI-1 renal) was 15.1 µM, the GI50 (MDA-MB-231 breast) was 2.97 µM and the TGI (MDA-MB-231 breast) was greater than 100 µM. For the same molecule, the GI50 (IGROV1 ovarian) was 4.18 µM, the TGI (IGROV1 ovarian) was greater than 100 µM and the GI50 (SR leukemia) was 0.659 µM. It also gave a TGI (SR leukemia) greater than 100 µM, a GI50 (SK-MEL-28 melanoma) of 1.39 µM and a TGI (SK-MEL-28 melanoma) of 4.19 µM. The GI50 (SNB-75 CNS) was 0.339 µM, the TGI (SNB-75 CNS) was 9.95 µM and the GI50 (SF-295 CNS) was 0.303 µM. For the same molecule, the TGI (SF-295 CNS) was 1.22 µM, the GI50 (A498 renal) was 1.76 µM and the TGI (A498 renal) was 4.23 µM. For the same molecule, the GI50 (OVCAR-3 ovarian) was 2.92 µM, the TGI (OVCAR-3 ovarian) was 16 µM and the GI50 (HOP-92 NSCLC) was 3.78 µM. The TGI (HOP-92 NSCLC) was greater than 100 µM, the GI50 (SF-539 CNS) was 0.333 µM and the TGI (SF-539 CNS) was 1.67 µM. The GI50 (HCT-15 colon) was 1.26 µM, the TGI (HCT-15 colon) was 4.25 µM and the GI50 (MDA-MB-435) was 3.11 µM. It also gave a TGI (MDA-MB-435) of 13.2 µM, a GI50 (SN12C renal) of 3.03 µM and a TGI (SN12C renal) greater than 100 µM. For the same molecule, the GI50 (CCRF-CEM leukemia) was 0.764 µM, the TGI (CCRF-CEM leukemia) was greater than 100 µM and the GI50 (MOLT-4 leukemia) was 0.435 µM. The TGI (MOLT-4 leukemia) was greater than 100 µM, the GI50 (DU-145 prostate) was 3.03 µM and the TGI (DU-145 prostate) was greater than 100 µM. The GI50 (UO-31 renal) was 1.43 µM, the TGI (UO-31 renal) was 12.9 µM and the GI50 (SK-MEL-2 melanoma) was 2.93 µM. The TGI (SK-MEL-2 melanoma) was 12 µM, the GI50 (HCT-116 colon) was 1.23 µM and the TGI (HCT-116 colon) was 2.87 µM. The GI50 (HCC-2998 colon) was 3.67 µM, the TGI (HCC-2998 colon) was 14.7 µM and the GI50 (K-562 leukemia) was 1.21 µM. For the same molecule, the TGI (K-562 leukemia) was greater than 100 µM, the GI50 (EKVX NSCLC) was 2.14 µM and the TGI (EKVX NSCLC) was 55 µM. For the same molecule, the GI50 (OVCAR-4 ovarian) was 3.55 µM, the TGI (OVCAR-4 ovarian) was greater than 100 µM and the GI50 (NCI-H460 lung) was 3.13 µM. It also gave a TGI (NCI-H460 lung) of 30.8 µM, a GI50 (UACC-257 melanoma) of 2 µM and a TGI (UACC-257 melanoma) of 5.91 µM. The GI50 (HOP-62 NSCLC) was 3.91 µM, the TGI (HOP-62 NSCLC) was greater than 100 µM and the GI50 (NCI-H226 lung) was 2.22 µM. It also gave a TGI (NCI-H226 lung) greater than 100 µM.

From PubChem BioAssay (NCI)
